Reference: ChEMBL document CHEMBL3885861, “Open TG-GATES”

Species: Rattus norvegicus
Experiment: Open TG-GATES - Regimen: Daily Repeat
Type: toxicity, organism-based, Sprague-Dawley
Parameters: regimen Daily Repeat, gender Male, age 6 weeks
Settings: in vivo, po, 0 mg/kg, route gavage, dose level Control; for APTT / Bas / Eos / Fbg / Hb / Ht / Lym / MCH / MCHC / MCV / Mono / Neu / PT / Plat / RBC / Ret / WBC: tissue Blood; for KIDNEY_L / KIDNEY_R / KIDNEY_TOTAL: tissue Kidney; for LIVER: tissue Liver; for ALP / ALT / AST / BUN / CRE / DBIL / GLC / IP / K / LDH / Na / PL / RALB / TBIL / TC / TP / gamma-GTP / TG: tissue Plasma

Clc1ccccc1CN1CCc2sccc2C1 [TICLOPIDINE] gave a TERMINAL_BW (72 h, time 3 day) of 230.2 g, an APTT (72 h, time 3 day) of 20.4 s and a Bas (72 h, time 3 day) of 0.6%. The Eos (72 h, time 3 day) was 1%, the Fbg (72 h, time 3 day) was 211 mg/dL and the Hb (72 h, time 3 day) was 13.6 g/dL. It also gave a Ht (72 h, time 3 day) of 38.2%, a Lym (72 h, time 3 day) of 77.6% and an MCH (72 h, time 3 day) of 21.9 pg. For the same compound, the MCHC (72 h, time 3 day) was 35.8%, the MCV (72 h, time 3 day) was 61.3 fL and the Mono (72 h, time 3 day) was 3.2%. The Neu (72 h, time 3 day) was 17%, the PT (72 h, time 3 day) was 11.7 s and the Plat (72 h, time 3 day) was 127.8 x10_4/uL. It also gave an RBC (72 h, time 3 day) of 622.6 x10_4/ul, a Ret (72 h, time 3 day) of 6.2% and a WBC (72 h, time 3 day) of 129 x10_2/uL. For the same compound, the KIDNEY_L (72 h, time 3 day) was 1.1 g, the KIDNEY_R (72 h, time 3 day) was 1 g and the KIDNEY_TOTAL (72 h, time 3 day) was 2.1 g. It also gave an LIVER (72 h, time 3 day) of 11.1 g, an ALP (72 h, time 3 day) of 1033.4 IU/L and an ALT (72 h, time 3 day) of 42.8 IU/L. For the same compound, the AST (72 h, time 3 day) was 70.2 IU/L, the BUN (72 h, time 3 day) was 17 mg/dL and the CRE (72 h, time 3 day) was 0.4 mg/dL. For the same compound, the DBIL (72 h, time 3 day) was 0.07 mg/dL, the GLC (72 h, time 3 day) was 205.4 mg/dL and the IP (72 h, time 3 day) was 8.6 mg/dL. The K (72 h, time 3 day) was 4.4 meq/L, the LDH (72 h, time 3 day) was 128.8 IU/L and the Na (72 h, time 3 day) was 141.6 meq/L. It also gave a PL (72 h, time 3 day) of 148.6 mg/dL, an RALB (72 h, time 3 day) of 3.4 g/dL and a TBIL (72 h, time 3 day) of 0.1 mg/dL. It also gave a TC (72 h, time 3 day) of 69.8 mg/dL, a TP (72 h, time 3 day) of 5.5 g/dL and a gamma-GTP (72 h, time 3 day) of 1.2 IU/L. For the same compound, the TERMINAL_BW ([…], time 7 day) was 252.6 g, the TERMINAL_BW ([…], time 14 day) was 313.6 g and the TERMINAL_BW ([…], time 28 day) was 400.8 g. The APTT ([…], time 7 day) was 20.7 s, the Bas ([…], time 7 day) was 1% and the Eos ([…], time 7 day) was 1%. The Fbg ([…], time 7 day) was 224.2 mg/dL, the Hb ([…], time 7 day) was 14 g/dL and the Ht ([…], time 7 day) was 38.4%. It also gave a Lym ([…], time 7 day) of 81.6%, an MCH ([…], time 7 day) of 21.3 pg and an MCHC ([…], time 7 day) of 36.4%. It also gave an MCV ([…], time 7 day) of 58.5 fL, a Mono ([…], time 7 day) of 2.4% and a Neu ([…], time 7 day) of 13.4%. It also gave a PT ([…], time 7 day) of 11.4 s, a Plat ([…], time 7 day) of 127 x10_4/uL and an RBC ([…], time 7 day) of 658 x10_4/ul. It also gave a Ret ([…], time 7 day) of 4.7%, a WBC ([…], time 7 day) of 103.5 x10_2/uL and an APTT ([…], time 14 day) of 20.6 s. The Bas ([…], time 14 day) was 1%, the Eos ([…], time 14 day) was 0.8% and the Fbg ([…], time 14 day) was 220.6 mg/dL. For the same compound, the Hb ([…], time 14 day) was 14.3 g/dL, the Ht ([…], time 14 day) was 39.5% and the Lym ([…], time 14 day) was 78.8%. The MCH ([…], time 14 day) was 21.1 pg, the MCHC ([…], time 14 day) was 36.2% and the MCV ([…], time 14 day) was 58.1 fL. For the same compound, the Mono ([…], time 14 day) was 2.8%, the Neu ([…], time 14 day) was 16% and the PT ([…], time 14 day) was 11.6 s. It also gave a Plat ([…], time 14 day) of 116.1 x10_4/uL, an RBC ([…], time 14 day) of 681.2 x10_4/ul and a Ret ([…], time 14 day) of 4.3%. It also gave a WBC ([…], time 14 day) of 121.8 x10_2/uL, an APTT ([…], time 28 day) of 18.1 s and a Bas ([…], time 28 day) of 0.8%. For the same compound, the Eos ([…], time 28 day) was 1%, the Fbg ([…], time 28 day) was 233.4 mg/dL and the Hb ([…], time 28 day) was 15.5 g/dL. The Ht ([…], time 28 day) was 41.4%, the Lym ([…], time 28 day) was 80.2% and the MCH ([…], time 28 day) was 20.9 pg. It also gave an MCHC ([…], time 28 day) of 37.5%, an MCV ([…], time 28 day) of 55.7 fL and a Mono ([…], time 28 day) of 2%. It also gave a Neu ([…], time 28 day) of 15.4%, a PT ([…], time 28 day) of 11.5 s and a Plat ([…], time 28 day) of 106.8 x10_4/uL. It also gave an RBC ([…], time 28 day) of 743.4 x10_4/ul, a Ret ([…], time 28 day) of 2.7% and a WBC ([…], time 28 day) of 97 x10_2/uL. For the same compound, the KIDNEY_L ([…], time 7 day) was 1.1 g, the KIDNEY_R ([…], time 7 day) was 1 g and the KIDNEY_TOTAL ([…], time 7 day) was 2.1 g. For the same compound, the KIDNEY_L ([…], time 14 day) was 1.2 g, the KIDNEY_R ([…], time 14 day) was 1.2 g and the KIDNEY_TOTAL ([…], time 14 day) was 2.4 g. The KIDNEY_L ([…], time 28 day) was 1.4 g, the KIDNEY_R ([…], time 28 day) was 1.3 g and the KIDNEY_TOTAL ([…], time 28 day) was 2.7 g. For the same compound, the LIVER ([…], time 7 day) was 11.3 g, the LIVER ([…], time 14 day) was 13.2 g and the LIVER ([…], time 28 day) was 16.3 g. It also gave an ALP ([…], time 7 day) of 1176 IU/L, an ALT ([…], time 7 day) of 44.8 IU/L and an AST ([…], time 7 day) of 81.6 IU/L. It also gave a BUN ([…], time 7 day) of 15 mg/dL, a CRE ([…], time 7 day) of 0.4 mg/dL and a DBIL ([…], time 7 day) of 0.066 mg/dL. It also gave a GLC ([…], time 7 day) of 195.4 mg/dL, an IP ([…], time 7 day) of 6.9 mg/dL and a K ([…], time 7 day) of 3.9 meq/L. The LDH ([…], time 7 day) was 144.6 IU/L, the Na ([…], time 7 day) was 141.4 meq/L and the PL ([…], time 7 day) was 153.4 mg/dL. It also gave an RALB ([…], time 7 day) of 3.4 g/dL, a TBIL ([…], time 7 day) of 0.1 mg/dL and a TC ([…], time 7 day) of 77.8 mg/dL. It also gave a TG ([…], time 7 day) of 81.6 mg/dL, a TP ([…], time 7 day) of 5.7 g/dL and a gamma-GTP ([…], time 7 day) of 1.2 IU/L. The ALP ([…], time 14 day) was 840.4 IU/L, the ALT ([…], time 14 day) was 33.6 IU/L and the AST ([…], time 14 day) was 70.2 IU/L. For the same compound, the BUN ([…], time 14 day) was 17.2 mg/dL, the CRE ([…], time 14 day) was 0.4 mg/dL and the DBIL ([…], time 14 day) was 0.056 mg/dL. For the same compound, the GLC ([…], time 14 day) was 215.8 mg/dL, the IP ([…], time 14 day) was 7.5 mg/dL and the K ([…], time 14 day) was 4.4 meq/L. It also gave an LDH ([…], time 14 day) of 155.2 IU/L, a Na ([…], time 14 day) of 142 meq/L and a PL ([…], time 14 day) of 138 mg/dL. It also gave an RALB ([…], time 14 day) of 3.4 g/dL, a TBIL ([…], time 14 day) of 0.098 mg/dL and a TC ([…], time 14 day) of 65.2 mg/dL. For the same compound, the TG ([…], time 14 day) was 114 mg/dL, the TP ([…], time 14 day) was 5.6 g/dL and the gamma-GTP ([…], time 14 day) was 1.2 IU/L. It also gave an ALP ([…], time 28 day) of 742.8 IU/L, an ALT ([…], time 28 day) of 29.6 IU/L and an AST ([…], time 28 day) of 58.6 IU/L. For the same compound, the BUN ([…], time 28 day) was 18.2 mg/dL, the CRE ([…], time 28 day) was 0.5 mg/dL and the DBIL ([…], time 28 day) was 0.068 mg/dL. The GLC ([…], time 28 day) was 214.4 mg/dL, the IP ([…], time 28 day) was 6.7 mg/dL and the K ([…], time 28 day) was 3.8 meq/L. The LDH ([…], time 28 day) was 168.2 IU/L, the Na ([…], time 28 day) was 141.6 meq/L and the PL ([…], time 28 day) was 133.2 mg/dL. For the same compound, the RALB ([…], time 28 day) was 3.6 g/dL, the TBIL ([…], time 28 day) was 0.1 mg/dL and the TC ([…], time 28 day) was 63 mg/dL. It also gave a TG ([…], time 28 day) of 126.8 mg/dL, a TP ([…], time 28 day) of 6.1 g/dL and a gamma-GTP ([…], time 28 day) of 0.8 IU/L.
